# Source: US9567649B2, “System for identification of microorganism and detection of infectious disease” (priority 2011, dated 2017)
# B1: S(Topl): REEAD sensor previously demonstrated to react specifically with hTopl in human cell extract (SEQ ID NO: 25) (nucleic acid)
# chain: AGAAAAATTTTTAAAAAAACTGTGAAGATCGCTTATTTTTTTAAAAATTTTTCTAAGTCTTTTAGATCCCTCAATGCTGCTGCTGTACTACGATCTAAAAGACTTAGA
# modifications: chemistry not given here
# How the values were obtained:
# Format in all cases: biochemical, Plasmodium falciparum
# pfTopl [1] = assay: DNA cleavage-ligation assay with radio-labeled duplex DNA in absence or presence of CPT; conditions: 60 nM CPT, duplex OL62/OL63, 20 min at 37° C.
# Description: Detection of PfTopl activity using radio-labeled DNA substrates: DNA cleavage reactions were carried out by incubating 20 nM duplex OL37/OL56 or OL62/OL63 with 500 fmol of pfTopl or hTopl in the absence or presence of 60 nM CPT for 20 min at 37° C. in 10 mM Tris (pH 7.5), 5 mM MgCI2, and 5 mM CaCI2 in a final volume of 20 μI. After the 20 min incubation, reactions were stopped with 0.5% (w/v) SDS. Samples were subjected to ethanol precipitation, resuspended in 10 μI of 1 mg/ml trypsin and incubated at 37° C. for 30 min. Reaction products were analyzed by denaturing polyacrylamide gel electrophoresis following standard procedures, and radioactive bands were visualized by PhosphorImaging.
# pfTopl [2] = assay: REEAD in nuclear extract from HEK293T cells with or without spike-in pfTopl
# From the text: The specificity of pfTopl(S1) for pfTopl in crude biological samples was addressed using nuclear extract from human HEK293T cells with or without spike-in pfTopl as a model for Plasmodium infection. […] Consequently, green signals observed in FIG. 22b, right panel, originated from hTopl and pfTopl activity in combination where pfTopl(S1) and S(Topl) competed for reaction by pfTopl at the expense of sensitivity.
# Cell culture and nuclear extract preparation: Human embryonic kidney HEK293T cells were cultured in Dulbecco's Modified Eagle Medium (GIBCO) supplemented with 10% fetal bovine serum (FBS) (GIBCO), 100 units/mL penicillin and […] streptomycin (Invitrogen). Cells were incubated in a humidified incubator (5% CO2/95% air atmosphere at 37° C.). Cells were harvested with 0.5% Trypsin-EDTA (GIBCO).
# Media was discarded and the cell washed in Phosphate-Buffered Saline (1×PBS) prior to nuclear extraction performed as previously described′. […]
# (§1) REEAD-microscopic readout: The 5′-amine-conjugated primer was coupled to CodeLink Activated Slides (SurModics) according to the manufacturer's description. […] Quantification of pfTopl specific signals was performed as previously described^1. REEAD-HRP readout: Primer coupling to NHS-activated M-PVA Akl 1 magnetic beads (Chemagen) was performed according to the manufacturer's description. […]
# pfTopl [3] = assay: REEAD: circularization of oligonucleotide sensors by purified pfTopl; conditions: control-circle added
# From the text: Like human topoisomerasel (hTopl), pfTopl belongs to the family of nuclear typelB topoisomerases, which introduce transient single-strand breaks in double-stranded DNA with preference for a very degenerate consensus sequence. Cleavage results in a covalent enzyme-DNA intermediate allowing religation of the generated nick (FIG. 23). […] Based on this, five different oligonucleotides with potential of being circularized specifically by pfTopl cleavage-ligation were designed. These oligonucleotides (PfTopl (S1-S5)) all folded into a hairpin structure containing a probe- and a primer-annealing sequence in the single-stranded loop and a potential pfTopl recognizable sequence at the end of the double-stranded stem region (FIG. 1 b). […] To allow comparative quantification of signals generated in different reactions, a known concentration of control-circle with a unique probe-annealing sequence was added to the reaction mixtures before RCA and resulting RCPs visualized using a green-fluorescent probe. […]
# as §1
Molecule,effect of camptothecin on pfTopl ligation product (pfTopl [1]),specificity of sensor for pfTopl in nuclear extract (pfTopl [2]),circularization efficiency by pfTopl (red signals relative to green signals) (pfTopl [3])
CC[C@@]1(O)C(=O)OCc2c1cc1n(c2=O)Cc2cc3ccccc3nc2-1 [camptothecin],A ligation product is only observed upon incubation of the substrate with pfTopl in the absence of camptothecin,–,–
"pfTopl(S1): hairpin oligonucleotide sensor for pfTopl, sequence in the 2nd table (TCTAGAAAGTATAGGAACTTCGAACGACTCAGAATGACTG; hairpin, further chemistry not given here)",–,specificity of pfTopl(S1) for pfTopl even on a background of human nucleus content,most efficient sensor of pfTopl
B1,–,–,circularizes S(Topl)
